Measured values reported in US6939858B2, “Malto-oligosaccharide derivatives and use thereof” (Kikkoman Corporation, priority 2000, dated 2005).

Experiments:
[1] = biological target: T1, HPA (α-amylase derived from human pancreatic juice) (Homo sapiens, UniProt P04746); assay: Inhibition of human α-amylase activity in vitro (blue starch, Neo·Amylase Test), HPA; format: biochemical; details: final concentration of inhibitor reducing 50% of the activity of the HPA solution; 37° C., 30 minutes
T1 construct: purchased International Reagents Corp., Japan Calibzyme·AMY
T1 sequence (P04746 16-511): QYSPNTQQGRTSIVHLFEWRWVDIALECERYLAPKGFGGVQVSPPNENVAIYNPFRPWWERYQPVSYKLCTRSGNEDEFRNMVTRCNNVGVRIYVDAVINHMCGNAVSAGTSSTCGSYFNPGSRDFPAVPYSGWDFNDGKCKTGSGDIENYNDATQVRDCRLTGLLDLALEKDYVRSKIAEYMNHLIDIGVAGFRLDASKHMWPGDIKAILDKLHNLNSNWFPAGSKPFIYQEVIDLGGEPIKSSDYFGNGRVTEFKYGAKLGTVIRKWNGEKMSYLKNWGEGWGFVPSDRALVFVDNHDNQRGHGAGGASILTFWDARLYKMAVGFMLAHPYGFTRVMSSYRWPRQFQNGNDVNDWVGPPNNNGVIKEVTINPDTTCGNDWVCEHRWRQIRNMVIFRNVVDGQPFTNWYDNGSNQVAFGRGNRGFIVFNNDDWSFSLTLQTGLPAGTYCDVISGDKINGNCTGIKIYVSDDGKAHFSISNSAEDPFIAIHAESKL
Method: (§1) Purified water was added to commercial HPA and HSA to dissolve them to a concentration of 350 IU/1 to prepare an α-amylase solution. “Calibzyme·AMY” (produced by International Reagents Corp., Japan) was used as this commercial human α-amylase. The α-amylase activity was determined with reference to the calibration curves of a commercial α-amylase determining reagent “Neo·Amylase Test, Daiichi” (produced by Daiichi Pure Chemicals Co., Ltd., Japan).
(§2) To 100 μl of the HPA or HSA solution were added 3.0 ml of purified water, 1.0 ml of inhibitor solution and one tablet of blue starch of “Neo·Amylase Test, Daiichi” (produced by Daiichi Pure Chemicals Co., Ltd., Japan). After stirring by a mixer for about 10 seconds, the mixture was warmed at 37° C. for 30 minutes and then further stirred by adding 1.0 ml of a 0.5 N sodium hydroxide solution to cease the reaction, after which the solution was centrifuged (1,500 G, 5 min.) and absorbance of the supernatant at 620 nm was measured. As a blank, purified water was used instead of the inhibitor solution.

[2] = biological target: T2, HSA (α-amylase derived from human salivary gland) (Homo sapiens, UniProt P0DUB6); assay: Inhibition of human α-amylase activity in vitro (blue starch, Neo·Amylase Test), HSA; format: biochemical; details: final concentration of inhibitor reducing 50% of the activity of the HSA solution; 37° C., 30 minutes
T2 construct: purchased International Reagents Corp., Japan Calibzyme·AMY
T2 sequence (P0DUB6 16-511): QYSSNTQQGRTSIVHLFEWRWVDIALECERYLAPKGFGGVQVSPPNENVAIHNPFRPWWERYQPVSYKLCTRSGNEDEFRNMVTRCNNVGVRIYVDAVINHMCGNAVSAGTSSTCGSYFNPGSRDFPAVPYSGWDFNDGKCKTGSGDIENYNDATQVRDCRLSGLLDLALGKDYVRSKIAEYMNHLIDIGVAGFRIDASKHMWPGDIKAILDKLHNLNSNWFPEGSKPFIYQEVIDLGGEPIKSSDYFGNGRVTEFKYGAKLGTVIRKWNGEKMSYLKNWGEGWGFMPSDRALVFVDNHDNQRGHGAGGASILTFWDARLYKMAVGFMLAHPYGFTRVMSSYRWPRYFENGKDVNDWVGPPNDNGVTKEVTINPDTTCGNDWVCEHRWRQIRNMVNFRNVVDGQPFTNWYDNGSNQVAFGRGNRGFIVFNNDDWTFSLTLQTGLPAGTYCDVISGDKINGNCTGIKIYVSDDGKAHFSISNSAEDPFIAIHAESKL
Method: as §1, §2

mice [Crj:CD-1 (ICR)] = assay: Anti-diabetic activity: blood glucose level after oral corn starch loading in mice; format: in vivo; details: mice unfed 20 hours; oral DOGGDN 10 mg, 5 mg and 1 mg with 2,000 mg corn starch per kg; 0.5-4.0 hours; t-test; FIG. 1
Method: Commercially available healthy mice [Crj:CD-1 (ICR) available from Japan Charles River Co., Ltd.
Blood was collected from the orbital veniplex of each mouse just before administration and after the lapse of 0.5 hour, 1.0 hour, 1.5 hours, 2.0 hours, 3.0 hours and 4.0 hours after administration, and the concentration of glucose in the blood [blood glucose level (mg/dl)] was measured to examine the inhibitory effect against rise of blood glucose level after intake of corn starch, i.e. the anti-diabetic action. The inhibitory effect against rise of blood sugar level was judged by the t-test. The glucose concentration in the blood was determined using a blood glucose level analyzer “[sequence]” [mfd. by Bayer Sankyo Co., Ltd.].

OCC1NCC(O)C(O)C1OC1OC(CO)C(OC2OC(CO)C(O)C(O)C2O)C(O)C1O (stereo not drawn) [GGDN, Maltosyl-deoxynojirimycin, reference compound]
IC50 [1]: 0.26 mM
IC50 [2]: 0.26 mM

CC1OC(OC2C(CO)OC(OC3C(CO)NCC(O)C3O)C(O)C2O)C(O)C(O)C1OC1OC(CO)C(O)C(O)C1O [GDOGGDN, O-(α-D-glucopyranosyl)-(1→4)-O-(6-deoxy-α-D-glucopyranosyl)-(1→4)-O-(α-D-glucopyranosyl)-(1→4)-deoxynojirimycin]
IC50 [1]: 0.05 mM
IC50 [2]: 0.03 mM

CC1OC(OC2C(CO)OC(OC3C(CO)NCC(O)C3O)C(O)C2O)C(O)C(O)C1O [DOGGDN, O-(6-deoxy)-α-D-glucopyranosyl-(1→4)-O-(α-D-glucopyranosyl)-(1→4)-deoxynojirimycin]
rise of blood glucose level as compared with the control group (mice [Crj:CD-1 (ICR)]): reduced significantly
IC50 [2]: 0.03 mM
